# Results from patent US8637494B2, “Method of achieving normoglycemia in diabetics by administration of Withaferin A” (priority 2010, dated 2014).
# Key:
# human islets [1] = experiment: Viability determination by Hoechst 342/PI, human islets; assay type: cell-based; conditions: for viability of human islets exposed to cytokines: 24 hours (cytokines 85.8±3.9%, control 93.5±3.2%)
# Protocol: (§1) FIGS. 5A-5D show the optimal Withaferin A dosing is found without toxicity to islets: Human (5A and 5B) and mouse (5C and 5D) islets were cultured with Withaferin A. Samples were taken at 24 and 48 hours and stained with Hoechst 342 (all nuclei) and propidium iodide (necrotic nuclei). The percent viability was determined as the PI^+ area subtracted from the total area (Hoe342 stained). The optimal Withaferin A dose was determined to be 1.0 μg/mL Withaferin A for human islets (5A) and 0.5 μg/mL for mouse islets (5C). Asterisks above bars indicate statistically significant differences in mean values (*p<0.05 for 48 h and **p<0.001 for 24 and 48 hours) between controls and islets exposed to Withaferin A based on two-tailed Student's t test; N=10;
# (§2) Viability Determination by Hoechst 342/PI: For immediate in vitro determination of necrosis, islets were incubated with Hoechst 342 (10 μg/mL) and propidium iodide (20 μg/mL) for 10 minutes at 37° C. before imaging via fluorescent microscopy. Fluorescent microsgraphs were merged in Image J (NIH Bethesda, Md.) and the propidium iodide positive area was divided by the Hoechst 342 positive area to provide a calculation of islet viability.
# [2] = system: inflammatory cytokines and chemokines (iNOS, IL-1β, RANTES, MIG, IP-10) in human islets; conditions: human islets exposed to inflammatory cytokines, qPCR; cited from earlier work
# [3] = system: G-CSF, IL-2, IL-6, IL-8, IP-10, MCP-1, IL-1α, TNF-α, MIP-1α, MIP-1β secreted by human islets; experiment: Secreted inflammatory cytokines and chemokines (Luminex); assay type: cell-based; conditions: 96 hours
# Protocol: Supernatant was collected and analyzed in duplicate with Millipore's human cytokine detection kit in the Luminex 200®. Results were standardized to the number of islets. Graphical representations are expressed as means±STD. Significant differences between mean values groups as determined by Turkey-Kramer post-hoc tests are indicated by an asterisk (*p<0.05) above bars;
# Measurement of Secreted Inflammatory Cytokines and Chemokines: Fifty human islets were cultured in human islet culture media for 96 hours with the cytokine and Withaferin A treatment. Secretion of proinflammatory cytokines was determined by measuring cell culture supernatant in a Luminex 200 with a human inflammatory cytokine MagPlex kit (Millipore, Billerica, Mass.). The bead assay was performed according to the manufacturer's instructions with samples in duplicate.
# In this study cell culture supernatants from human islets exposed to cytokines and Withaferin A was evaluated by a multiplex bead assay using Luminex® technology. The cell culture supernatant from which the samples were taken for Luminex analysis contained fifty, pure, hand-picked human islets, which had been cultured at 22° C. for over a week to decrease resident macrophage numbers that might interfere (N=10).
# islets [4] = experiment: FDA/PI staining islet viability, dose effect study; conditions: 48 hours culture
# Protocol: Viability was assessed using fluorescein diacetate (FDA) and propidium iodide (PI). Islets used for the studies were 80 to 90% viable, with a purity of 60 to 85%. Human islets used were handpicked to greater than 95% purity. Islets were cultured with CMRL-based human islet culture media containing 0.1% BSA with Kanamycin at 37° C.
# The viability and apoptosis test of islet with four different concentrations of Withaferin A (0.5 μg/mL, 1 μg/mL, 2 μg/mL and 4 μg/mL) was examined. FDA/PI staining was used to determine the islet viability.
# [5] = IPGTT on day 30 post transplant; assay type: in vivo, C57BL/6 mice
# Protocol: Intraperitoneal glucose tolerance test was performed on day 30 post transplant to assess glycemic control of Withaferin A-treated and vehicle-treated (11E) mice; also naïve and STZ-induced diabetic mice were challenged with glucose for comparison. After 12-14 hours of fasting, mice were injected with a 5% glucose solution (1 mg/kg body weight) and blood glucose levels were monitored at 0, 30, and 120 minutes afterwards.
# IPGTT: Naïve, transplanted, and STZ induced diabetic mice were used to perform an intraperitoneal glucose tolerance test. The mouse's food was removed for 12-14 hours, then an injection of glucose (1 mg/kg body weight, 5% glucose solution in DPBS) was administered intraperitoneally. Blood glucose was monitored with Accu-Chek at 0, 30, and 120 minutes after the injection.
# To evaluate the islet graft function, IPGTT was performed on cured mice and vehicle treated mice on day 30. To control for the pattern in islet function, naïve and STZ-induced diabetic mice were tested as well. After 12 to 14 hours of fasting, mice were injected with a 5% glucose solution (2 mg/kg body weight) and blood sugar levels were measured at zero, thirty, and one hundred twenty minutes after the injection.
# [6] = system: MIN6, a mouse beta cell line; experiment: RT-PCR gene expression in MIN6 cells; assay type: cell-based
# Protocol: RT-PCR Inflammation Array and Primer Assays: After proper time of treatment, islets were harvested and lysed in lysis buffer (Stratagene, La Jolla Calif.). RNA was purified by Absolutely RNA Miniprep kit (Stratagene) and then reverse transcribed into cDNA by RT2 Firststrand kit (SABiosciences, Frederick Md.). […] The RT-PCR reaction was run in Stratagene MX3000 with following program: 95° C., 10 minutes; 40 cycles of (95° C., 15 second; and 60° C., 60 second). Cycle threshold data was uploaded to a Web-Based PCR Array Data Analysis on SABiociences website and fold change compared to control was analyzed.
# Procedure for single gene primer assays was the same except primers of particular genes other than the whole array plate were used.
# [7] = system: NF-κB p65 in human β cells; experiment: p65 translocation assay; assay type: cell-based; conditions: 24 hours (control 21.6±5.3%, cytokines 41.3±13.5%)
# Protocol: Graphical representations (7B) are expressed as means±STD. Asterisks above bars indicate significant differences in mean values (*p<0.05) as determined by Turkey-Kramer post-hoc tests;
# p65 Translocation Assay: NF-κB, p65, translocation was determined by overlap of Alexa-488 labeled NF-κB and DAPI stained nuclei, pseudocolored red by Image J for visualization. […] Nuclei positive for activated NF-κB translocation was counted in insulin positive cells and divided by the total number of beta-cells.
# To determine whether NF-κB has been activated and moved to the nucleus, immunohistochemistry was performed to locate the p65 portion of NF-κB as described elsewhere.^12 All nuclei in insulin positive human β cells were counted and when NF-κB was stained in the nucleus it was classified NF-κB^+ and nuclei without NF-κB were classified NF-κB^− (FIG. 7A). Percent NF-κB activation was measured at 24 hours after culture with the cytokine cocktail and Withaferin A (FIG. 7B).
# [8] = system: MCP-1 and IP-10 in human islets; experiment: Fluorescent immunohistochemistry, mean fluorescent intensity of MCP-1 and IP-10; assay type: cell-based; conditions: cytokine cocktail + 0.5 μg/mL Withaferin A, 24 hours
# Protocol: Islet sections were captured under similar conditions and mean fluorescent intensity values were measured. […] Significant differences between mean values groups as determined by Turkey-Kramer post-hoc tests are indicated by an asterisk (*p<0.05) above bars;
# Immunohistochemistry: Engrafted livers and cytokine treated islets were preserved in 10% formalin, embedded in paraffin and sectioned at 5 μm. Tissue sections were deparaffinized in xylene (twice for 5 minutes) and series of ethanol gradients (100%, 95%, 90%, 80%, 70%, and 50% ethanol diluted with water for 2 minutes each). Next, sections were heated at 98° C. in 1× Antigen Retrieval Reagent-Universal (R&D Systems) for 20 minutes. Then tissue samples were blocked for non-specific bonding by AquaBlock (EastCoast Bio) for 1 hour at room temperature. Next the primary antibody, diluted in a background reducing antibody diluent, was applied overnight at 4° C. Next, the appropriate fluorescently conjugated secondary antibody (diluted 1000×) was applied for 1 hour at room temperature protected from light. […] Micrographs were imported to Image J, converted to 8-bit grayscale photos, then the mean fluorescence intensity was measured by limiting the region of interest to a single islet via the thresholding function of the program. Mean fluorescent intensity is calculated at the integrated density divided by the area in the region of interest.
# [9] = In vivo intraportal syngeneic islet transplant in STZ diabetic mice; design: species or system C57BL/6 mice
# Protocol: Intraperitoneal glucose tolerance test was performed on day 30 post transplant to assess glycemic control of Withaferin A-treated and vehicle-treated (11E) mice; also naïve and STZ-induced diabetic mice were challenged with glucose for comparison. After 12-14 hours of fasting, mice were injected with a 5% glucose solution (1 mg/kg body weight) and blood glucose levels were monitored at 0, 30, and 120 minutes afterwards. […] After thirty days, hepatectomy of recipient mice was performed and the liver was fixed in formalin, embedded in paraffin and stained for insulin (11F) and H&E (11G).
# In-vivo Intraportal Transplant: Diabetes was induced in by injecting streptozomycin (STZ 180 mg/kg, 9 mg/mL dissolved in DPBS) into the tail vein. Accu-Chek Aviva® (Roche Diagnostics, Indianapolis, Ind.) was used to monitor blood glucose from the tail vein, and mice were considered diabetic, when their blood glucose was measured as greater than 350 dg/mL for two days in a row. Mice were anesthetized with avertin (20 mg/mL, 0.5 mL/mouse), then two hundred islets were injected into the portal vein by puncturing the portal vein through the pancreas with a 27 gauge, hypodermic needle attached to a glass syringe. The peritoneum was first closed with 5-0 black silk sutures, and before sealing this closure, Withaferin A (25 ug, 0.5 mL/mouse) or vehicle (DPBS) was injected into the peritoneal space. […]
# To determine only the anti-inflammatory effects of Withaferin A on islet transplantation, a syngeneic model was used. […] It was determined that 400 islets are required for successful transplantation into the portal vein of the liver for mice.
# Daily intraperitoneal injections of Withaferin A (25 μg, 0.5 mL/mouse) for seven days post-transplant beginning immediately after islet infusion were performed on six mice. […] After 12 to 14 hours of fasting, mice were injected with a 5% glucose solution (2 mg/kg body weight) and blood sugar levels were measured at zero, thirty, and one hundred twenty minutes after the injection.
# [10] = system: inflammatory gene expression in human islets; experiment: RT-PCR human inflammation gene array, cytokine-treated islets; assay type: cell-based
# Protocol: (§3) Cytokine & Withaferin A Treatment: After isolation and overnight culture, islets were subjected to an in-vitro model of inflammatory conditions with a cytokine cocktail of the species specific recombinant proteins (1,000 U/mL TNF-α, 1,000 U/mL IFN-γ, and 50 U/mL IL-1β dissolved in human or mouse islet culture media). Islets were treated by Withaferin A co-culture at concentrations ranging from 0.25 to 2.0 μg/mL. Control islets were cultured in the appropriate culture media lacking both the cytokine cocktail and Withaferin A. All islets were cultured in a humidified incubation chamber at 37° C. with 5% CO2 for the indicated time.
# IP-10 = experiment: Flow cytometry, intracellular IP-10 in islets; assay type: cell-based, human; conditions: islets treated with cytokine mix + Withaferin A (untreated 4214.15, cytokine mix 18024.08)
# Description: (§4) The IP-10 expression level was examined by flow cytometry. After treatment, islets were fixed, permeablized and aliquoted to three tubes staining with anti-IP10.
# MCP-1 and IP-10 = experiment: Immunohistochemical staining of MCP-1 and IP-10 (HRP/DAB); assay type: cell-based, human; conditions: Withaferin A and cytokine treatment vs cytokine treatment
# Protocol: Immunohistochemical Staining: After culture, islets were embedded in OCT compound, flash frozen in liquid nitrogen and stored at −80° C. until sectioning. Nine μm sections of embedded islets were taken and stained for IP-10 (1:100), MCP-1 (1:20), or insulin (1:75) using standard immunohistochemical techniques. Staining was visualized using an HRP-conjugated secondary antibody conjugated with diaminobenzidine (DAB). Samples were then counterstained with hematoxylin, dehydrated and mounted. Images were acquired.
# as §4
# human islets [11] = experiment: Glucose stimulated static incubation assay, human islets; conditions: for stimulation index, human islets: 24 hours, no cytokines (control 3.11±1.53)
# Protocol: as §3
# (§5) Glucose Stimulated Static Incubation Assay: Islets in each experimental condition were incubated with low (2.8 mM) and then high (20.0 mM) concentrations of glucose solution in Functionality/Viability Medium CMRL1066 (Mediatech, Inc. Manassas, Va.) for 1 hour each at 37° C. Insulin concentrations were measured by an insulin ELISA kit (ALPCO Diagnostics, Salem, N.H.). The insulin secretion levels were normalized by total DNA of the stimulated islets. Studies were performed in triplicate with 10 islets in each group.
# [12] = system: RANTES, IP10, MIG, IL-1β, iNOS expression in human islets; experiment: RT-PCR single gene primer assays, dose and time course in human islets; assay type: cell-based
# Protocol: as §3, with “Islets were treated by Withaferin A co-culture at concentrations ranging from 0.25 to 2.0 μg/mL.” left out
# [13] = system: IκB in human islets and β-cell lines; experiment: Western blotting of IκB after cytokine cocktail; assay type: cell-based; conditions: cytokines 20 min
# Protocol: Graphical representations (6B) are expressed as means±STD. Asterisks above bars indicate statistically significant differences in mean values (*p<0.05, **p<0.01, ***p<0.001) between treatments and controls (black bars) for each cell type based on two-tailed Student's t test;
# Western Blotting: Cells were treated with cytokines for 20 min, then harvested in lysis buffer containing 50 mM HEPES, pH 7.5, 150 mM NaCl, 1% Triton X-100, 0.2 mg/mL phenylmethylsulfonyl fluoride (PMSF), 0.1 M NaF, 2 mM Na3VO4, 10 μg/mL aprotinin, 5 μg/mL pepstatin A, and 5 μg/mL leupeptin. Proteins were subjected to SDS/polyacrylamide gel electrophoresis and electrotransferred to nitrocellulose membranes. Membranes were blocked with 5% milk in Tris-buffered saline containing 0.1% Tween-20 (TBST) pH 7.4 for 2 hours, incubated with primary antibody for 1 hour at 4° C., and washed three times with TBST. Primary antibodies were IkB-α (C-21) (Santa Cruz) and ERK1/2 as described.^21 Membranes were then incubated with secondary antibodies conjugated to DyLight 680 and 800 fluorescent dyes (Cell Signaling) to detect proteins using an ODYSSEY Infrared Imaging System (LI-COR).
# islets [14] = experiment: TUNEL assay, FITC positive population, dose effect study
# Protocol: The present inventors conducted a dose effect study of Withaferin A on islets. […] The viability and apoptosis test of islet with four different concentrations of Withaferin A (0.5 μg/mL, 1 μg/mL, 2 μg/mL and 4 μg/mL) was examined. FDA/PI staining was used to determine the islet viability.
# mouse islets [15] = experiment: Glucose stimulated static incubation assay, mouse islets
# Protocol: as §3, §5
# human β cells = experiment: TUNEL assay on sections, cytokine mediated beta cell apoptosis; assay type: cell-based; conditions: cytokine + 1.0 μg/mL, twenty four hours, vs control
# Protocol: Islets were protected from cytokine damage by Withaferin A at both time points. Islet potency was assessed by stimulation index after 24 hours. […] Graphical representations (10E-10G) are expressed as means±STD. Significant differences between mean values groups as determined by Turkey-Kramer post-hoc tests are indicated by an asterisk (*p<0.05) above bars; and
# TUNEL Assay: The TUNEL assay was performed with ApopTag® fluorescein in situ apoptosis detection kit. After deparaffinization of samples, antigen retrieval was performed with proteinase K and insulin staining was performed as described previously. Next, digoxigenin labeled nucleotides were added to DNA fragments by the enzyme terminal deoxynucelotidyl transferase (TdT) by incubation at 37° C. for 1 hour. Fluorescein labeled anti-digoxigenin antibodies are bound to the digoxigenin by incubation at room temperature for 30 minutes. Lastly DAPI is stained as described above, and slides are mounted with VecataShield and visualized with fluorescent microscopy. Apoptotic cells are counted as those that appear fluorescently green in the nuclei of insulin positive cells. All nuclei of insulin positive cells were counted and percentage of TUNEL^+ cells was calculated as number of TUNEL positive nuclei divided by the total number of insulin positive beta cells. At least 300 nuclei were counted for each condition. […]
# mouse islets [16] = experiment: Viability determination by Hoechst 342/PI, mouse islets; assay type: cell-based; conditions: for viability of mouse islets exposed to cytokines: 24 hours (cytokines 78.1±11.6%, control 93.3±2.9%)
# Protocol: as §1
# Mouse Isolation: Islets were isolated from male inbred B6 […] mice (C57BL/6N Inbred Mice, Harlan Labs). Collagenase type V (Sigma, C9263) (2 mg/mL) was injected through the common bile duct into the pancreas. Mouse pancreata were digested by incubation at 37° C. for 28 minutes. After washing, the islets were purified with a discontinuous Ficoll based gradient (1.085 g/mL, 1.077 g/mL, and Cap of DMEM) and centrifugation at 1000 rpm for 10 minutes. Purified islets were further purified in a 65 mm dish in DMEM by removing acinar cells to a purity of greater than 95%. Islets were cultured in DMEM supplemented with Kanamycin and 0.1% BSA, mouse islet culture media.
# as §2
smiles,measurement,setting,value
CC1=C(CO)C(=O)O[C@@H]([C@@H](C)[C@H]2CC[C@H]3[C@@H]4C[C@H]5O[C@]56[C@@H](O)C=CC(=O)[C@]6(C)[C@H]4CC[C@]23C)C1 [Withaferin A],viability of human islets,"human islets [1]; 0.5 μg/mL, 48 hours, no cytokines (control 91.8±7.4%)",89.0±4.6%
same,viability of human islets,"human islets [1]; 1.0 μg/mL, 48 hours, no cytokines (control 91.8±7.4%)",91.9±3.5%
same,viability of human islets,"human islets [1]; 2.0 μg/mL, 24 hours, no cytokines (control 94.9±4.5%)",70.5±8.8%
same,viability of human islets exposed to cytokines,human islets [1]; cytokine cocktail + 0.5 μg/mL,92.6±5.1%
same,viability of human islets exposed to cytokines,human islets [1]; cytokine cocktail + 1.0 μg/mL,94.6±2.9%
same,optimal Withaferin A dose without toxicity to islets,"human islets [1]; human islets, 24 and 48 hours",1.0 µg/mL
same,decrease of mRNA levels of several chemokines,[2],ten-fold or more
same,secreted inflammatory molecules,"[3]; 1.0 μg/mL, cytokines, p<0.05",significant decrease
same,secreted levels of inflammatory cytokines and chemokines,"[3]; human islets, cytokines + Withaferin A",decreased secreted levels of each molecule
same,islet viability (FDA/PI),islets [4]; 0.5 μg/mL,not decreased
same,islet viability (FDA/PI),islets [4]; 1 μg/mL,not decreased
same,islet viability (FDA/PI),islets [4]; 2 μg/mL,slight decrease
same,islet viability (FDA/PI),islets [4]; 4 μg/mL,significant loss
same,"blood glucose, IPGTT","[5]; 0 minutes, day 30 (vehicle 485±95.4)",150.3 ± 89.2 mg/dL
same,"blood glucose, IPGTT","[5]; 30 minutes, day 30 (vehicle 523.8±95.3)",267.8 ± 84.8 mg/dL
same,"IP10, RANTES and MCP-1 expression upregulated by cytokine treatment",[6],could be inhibited
same,percent NF-κB+ insulin positive cells,[7]; cytokine cocktail + 0.5 μg/mL,19.5±8.1%
same,percent NF-κB+ cells,[7]; cytokine cocktail + 1.0 μg/mL,10.0±4.1%
same,IP-10 and MCP-1 levels within beta cells (mean fluorescent intensity),[8],near control levels
same,success rate (recipients achieving normoglycemia),"[9]; 200 islet isograft, 25 μg i.p. daily for 7 days (vehicle 0%)",83%
same,mice with amelioration of diabetes / mice treated,"[9]; 200 islet isograft, 25 μg i.p. daily for 7 days (vehicle 0/5)",5/6
same,ideal dose in the in vivo mouse model,[9]; doses from 2.5 to 50 μg/mouse tested,25 µg
same,"inflammatory gene expression, Withaferin A treated group vs control","[10]; Withaferin A alone, no cytokines",no significant difference
same,"inflammatory gene expression, cytokine and Withaferin A group vs cytokine alone group","[10]; human islets, FIG. 1B",significantly down regulated
same,inhibition of inflammatory gene expression (FIG. 1C),"[10]; human islets, cytokine cocktail + Withaferin A vs cytokine alone, all three donors",60%-100
same,IP-10 mean channel fluorescence,IP-10,7318.94 (+/−78.21)
same,intensity of MCP-1 staining and IP-10 staining,MCP-1 and IP-10,decreased the intensity
same,"stimulation index, human islets",human islets [11]; 0.5 μg/mL,3.52±1.97
same,Stimulation Index vs control group,"human islets [11]; 1 μg/mL Withaferin A, no cytokines (FIG. 4D)",no significant difference
same,"stimulation index, human islets",human islets [11]; 1.0 μg/mL,4.21±0.41
same,"stimulation index, human islets exposed to cytokines","human islets [11]; cytokines + 1.0 μg/mL, twenty four hours (cytokines 1.59±0.34, control 3.10±1.53)",2.20±0.61
same,"expression level of IL-1β, RANTES, MIG and IP-10 vs cytokine alone","[12]; 1 μg Withaferin A and cytokines, 12, 24, 36 and 48 hour",significantly inhibited
same,"expression of RANTES, IP10, MIG, IL-1β and iNOS","[12]; 0.5, 1, 2 and 4 μg per mL with cytokines",decreased with the increase in Withaferin A concentration
same,IκB protein relative to ERK1/2 after cytokine cocktail,[13],prevented the reduction of IκB
same,FITC positive population (apoptosis cells),islets [14]; 2 μg/mL,small increase
same,FITC positive population (apoptosis cells),islets [14]; 4 μg/mL,dramatic increase
same,percentage of FITC positive population (apoptosis cells),islets [14]; low Withaferin A dose samples (0.5 and 1 μg/mL),close to zero
same,"stimulation index, mouse islets","mouse islets [15]; 0.5 μg/mL, 24 hours, no cytokines (control 11.13±9.28)",7.05±2.20
same,"stimulation index, mouse islets exposed to cytokines","mouse islets [15]; cytokines with or without Withaferin A, twenty four hours",did not show any significant differences
same,cytokine induced β cell apoptosis (TUNEL positive staining),human β cells,totally cancel any effect of cytokines on β cell apoptosis
same,viability of mouse islets,"mouse islets [16]; 0.25 μg/mL, 48 hours, no cytokines (control 93.8±8.0%)",90.1±6.6%
same,viability of mouse islets,"mouse islets [16]; 0.5 μg/mL, 48 hours, no cytokines (control 93.8±8.0%)",94.6±4.4%
same,viability of mouse islets,"mouse islets [16]; 1.0 μg/mL, no cytokines, time not printed (control 97.3±2.2%)",87.8±11.1%
same,viability of mouse islets exposed to cytokines,mouse islets [16]; cytokine cocktail + 0.25 μg/mL,89.7±5.9%
same,viability of mouse islets exposed to cytokines,mouse islets [16]; cytokine cocktail + 0.5 μg/mL,89.9±3.6%
same,optimal Withaferin A dose without toxicity to islets,"mouse islets [16]; mouse islets, 24 and 48 hours",0.5 µg/mL
